This is an account of results in patent publication US9540325B2, “N1-cyclic amine-N5-substituted phenyl biguanide derivatives, methods of preparing the same and pharmaceutical composition comprising the same” (Immunomet Therapeutics, Inc., priority 2011, dated 2017).

Counter-ions that a name gives are not always drawn. Some results are limits rather than exact numbers.

Data set [1] has as its system HCT116 cells. The data set is described as follows: Measurement of effect of inhibiting cancer cell proliferation (MTT). It is filed as cell-based, human. Particulars: for inhibition at 100 µM: HCT-116, 100 μM, read-out: Cell Growth Inhibition (%) at 100 μM. The source says:
HCT116 cells derived from human colorectal cancer (commercially available from the Korean Cell Line Bank) were used, and the effect of inhibiting cancer cell proliferation of the biguanide derivative was confirmed by measuring the concentration value (cell growth inhibition concentration, GIC50) at which cell growth was inhibited by 50% using a 3-(4,5-dimethylthiazol-2-yl)-2,5-diphenyltetrazolium bromide (MTT) reagent.
First, HCT116 cells were put on a 96-well plate and cultured in a DMEM medium containing 10% fetal bovine serum for 16 hours so that the cellcount in each well was approximately 5,000. Subsequently, to obtain the GIC50 value of each compound, culture media were treated with 100 μM, 25 μM, 6.25 μM, 1.56 μM or 0.39 μM of the compound, and then cultured for 48 hours. Metformin hydrochloride was used as the control, and the culture media were treated with 25, 12.5, 2.5, 0.5, 0.1 mM metformin hydrochloride, and then tested in the same manner as described in the derivatives synthesized in the examples. In order to determine whether the cells survived after treatment with the compounds, MTT was added to the culture media which were then cultured for another 3 hours. Formed formazane crystals were dissolved using dimethyl sulfoxide (DMSO), and the absorbance of the resulting solution was measured at 560 nm. After the 48-hour culture, […] was indicated as cell viability (%) according to each treated concentration. A cell viability curve graph was plotted and the concentration (GIC50) value of the compound at which the growth was inhibited by 50% was calculated to confirm the inhibition effect of cancer cell proliferation. Also, the cell growth viability (%) when the concentration of the treated biguanide derivative and the metformin hydrochloride as the control were 100 μM was shown.

Data set [2] concerns AMPKα. The data set is described as follows: Measurement of AMPK activation effect (AMPKα Thr172 phosphorylation immunoassay) in MCF7 cells. In kind it is cell-based, human. Particulars: 24 hours; for AMPK activation effect at 10 μM (%) / AMPK activation effect at 50 μM (%): relative to untreated cells; for AMPK activation effect AC150: concentration at which AMPK activation reached 150%. The protocol: MCF7 cells derived from human breast cancer cells (commercially available from the Korean Cell Line Bank) were used, and the AMPK activation effect of the biguanide derivative was confirmed using an AMPKα immunoassay kit (Invitrogen, Catalog No. KHO0651).
MCF7 cells were cultured in a DMEM medium supplemented with 10% fetal bovine serum. Thereafter, the cultured MCF7 cells were put into a 6-well plate with approximately 5×10^5 cells per well and cultured in an incubator supplied with 5% CO2. Culture media were treated with the derivatives synthesized in the examples at contents of 5, 10 and 50 μM, and then cultured for 24 hours. Metformin hydrochloride was used as the control, and the culture media were treated with 0.05, 0.5, 1, 2, 5 and 10 mM metformin hydrochloride, and then tested in the same manner as described in the derivatives synthesized in the examples. Subsequently, the cells were lysed according to a method presented in the operation manual of the AMPKα immunoassay kit, and 20 μg of a cell lysate was then yielded through protein assay. Thereafter, the AMPK activation effect was obtained by determining the degree of phosphorylation of 172nd threonine residue (Thr172) of the AMPKα from the cell lysate according to the method presented in the operation manual of the AMPKα immunoassay kit. […] A curve graph showing AMPK activation according to the concentration of the treated compounds was plotted based on the obtained AMPKα activation results, the concentration (activation concentration 150, AC150) value of the compound whose AMPK activation reached 150% was calculated using a GraphPad Prism 5.0 program, and the degrees of AMPK activation were obtained when concentrations of the treated biguanide derivatives were 10 μM and 50 μM and the metformin hydrochloride was 50 μM

Take `N=C(NC(=N)N1CCCCC1)Nc1ccc(C(F)(F)F)cc1` (as salt: acetate) [Example 71, N1-piperidine-N5-(4-trifluoromethyl)phenyl biguanide acetate]: the melting point lay within 198 to 200 °C.
Turning to `N=C(NC(=N)N1CCCCC1)Nc1ccc(OC(F)(F)F)cc1` (as salt: acetate) [Example 73, N1-piperidine-N5-(4-trifluoromethoxy)phenyl biguanide acetate], the melting point is 200 to 202 °C.
With `N=C(NC(=N)N1CCCC1)Nc1ccc(C(F)(F)F)c(F)c1` (as salt: acetate) [Example 74, N1-pyrrolidine-N5-(3-fluoro-4-trifluoromethyl)phenyl biguanide acetate], the melting point is 204 to 205 °C.
Still for that read-out and setting: the result for `N=C(NC(=N)N1CCCCC1)Nc1ccc(C(F)(F)F)c(F)c1` (as salt: acetate) [Example 75, N1-piperidine-N5-(3-fluoro-4-trifluoromethyl)phenyl biguanide acetate] reads 206 to 208 °C.
As to `N=C(NC(=N)N1CCCC1)Nc1ccc(OC(F)(F)F)c(F)c1` (as salt: acetate) [Example 76, N1-pyrrolidine-N5-(3-fluoro-4-trifluoromethoxy)phenyl biguanide acetate], the melting point is 203 to 205 °C.
`N=C(NC(=N)N1CCCCC1)Nc1ccc(OC(F)(F)F)c(F)c1` (as salt: acetate) [Example 77, N1-piperidine-N5-(3-fluoro-4-trifluoromethoxy)phenyl biguanide acetate] had a melting point of 202 to 204 °C.
Take `Cl.N=C(NC(=N)N1CCCCC1)Nc1cccc(Br)c1` [Example 7, N1-piperidine-N5-(3-bromo)phenyl biguanide hydrochloride]: the melting point lay within 263 to 264 °C. The inhibition at 100 µM in data set [1] (Homo sapiens, 48 hours) turned out to be 97.2%. Further, halving of growth in data set [1] (Homo sapiens, HCT-116, 48 h) (GI50) required 7 µM. In data set [2], the “AMPK activation effect at 10 μM (%)” value stood at 526% and the “AMPK activation effect AC150” value worked out at 0.9 µM.
`Cl.N=C(NC(=N)N1CCCCC1)Nc1ccccc1` [Example 8, N1-piperidine-N5-phenyl biguanide hydrochloride]: the melting point fell in the range of 204 to 206 °C. The inhibition at 100 µM in data set [1] (Homo sapiens, 48 hours) was determined as 77.6%. Moreover, the GI50 in data set [1] (Homo sapiens, HCT-116, 48 h) came to 56.8 µM. Further, in data set [2], the “AMPK activation effect at 50 μM (%)” value amounted to 347% and the “AMPK activation effect AC150” value amounted to 10.1 µM.
The compound `Cc1cccc(NC(=N)NC(=N)N2CCCCC2)c1.Cl` [Example 9, N1-piperidine-N5-(3-methyl)phenyl biguanide hydrochloride] gave a melting point of 239 to 240 °C. Moreover, in data set [1] (Homo sapiens, 48 hours), the inhibition at 100 µM was determined as 79.1%. The GI50 in data set [1] (Homo sapiens, HCT-116, 48 h) is 13.4 µM. Also, in data set [2], the “AMPK activation effect at 10 μM (%)” value came out at 149%, the “AMPK activation effect at 50 μM (%)” value stood at 255% and the “AMPK activation effect AC150” value is 12.4 µM.
With `CCc1cccc(NC(=N)NC(=N)N2CCCCC2)c1.Cl` [Example 10, N1-piperidine-N5-(3-ethyl)phenyl biguanide hydrochloride], the melting point was 225 to 227 °C. Further, in data set [1] (Homo sapiens, 48 hours), the inhibition at 100 µM was 97.4%. The compound also had a GI50 in data set [1] (Homo sapiens, HCT-116, 48 h) of 27.3 µM. Moreover, in data set [2], the “AMPK activation effect at 10 μM (%)” value was found to be 178%, the “AMPK activation effect at 50 μM (%)” value is recorded as 598% and the “AMPK activation effect AC150” value turned out to be 7.3 µM.
Compound `Cl.N=C(NC(=N)N1CCCCC1)Nc1cccc(O)c1` [Example 11, N1-piperidine-N5-(3-hydroxy)phenyl biguanide hydrochloride] registered a melting point of 210 to 212 °C. Further, in data set [1] (Homo sapiens, 48 hours), the inhibition at 100 µM came out at 29.7%. This compound returned a GI50 in data set [1] (Homo sapiens, HCT-116, 48 h) greater than 100 µM. In data set [2], the “AMPK activation effect at 10 μM (%)” value was found to be 127%, the “AMPK activation effect at 50 μM (%)” value was 127% and the “AMPK activation effect AC150” value is greater than 50 µM.
For `Cl.N=C(NC(=N)N1CCCCC1)Nc1cccc(CO)c1` [Example 12, N1-piperidine-N5-(3-hydroxymethyl)phenyl biguanide hydrochloride], the melting point is 225 to 227 °C. In addition, the inhibition at 100 µM in data set [1] (Homo sapiens, 48 hours) was found to be 17.6%. Further, the GI50 in data set [1] (Homo sapiens, HCT-116, 48 h) was greater than 100 µM. In addition, in data set [2], the “AMPK activation effect at 10 μM (%)” value turned out to be 107%, the “AMPK activation effect at 50 μM (%)” value is given as 149% and the “AMPK activation effect AC150” value was greater than 50 µM.
`COc1cccc(NC(=N)NC(=N)N2CCCCC2)c1.Cl` [Example 13, N1-piperidine-N5-(3-methoxy)phenyl biguanide hydrochloride]: the melting point lay in the range of 230 to 232 °C. Besides, the inhibition at 100 µM in data set [1] (Homo sapiens, 48 hours) came out at 45.4%. The GI50 in data set [1] (Homo sapiens, HCT-116, 48 h) is greater than 100 µM. In data set [2], the “AMPK activation effect at 10 μM (%)” value is on record as 97%, the “AMPK activation effect at 50 μM (%)” value stood at 300% and the “AMPK activation effect AC150” value is 16.0 µM.
Regarding `Cl.N=C(NC(=N)N1CCCCC1)Nc1ccc(F)cc1` [Example 14, N1-piperidine-N5-(4-fluoro)phenyl biguanide hydrochloride], the melting point lay in the range of 269 to 270 °C. Further, the inhibition at 100 µM in data set [1] (Homo sapiens, 48 hours) amounted to 49.7%. For the same compound, the GI50 in data set [1] (Homo sapiens, HCT-116, 48 h) is greater than 100 µM. Also, in data set [2], the “AMPK activation effect at 10 μM (%)” value is recorded as 204%, the “AMPK activation effect at 50 μM (%)” value is on record as 429% and the “AMPK activation effect AC150” value amounted to 4.0 µM.
The compound `Cl.N=C(NC(=N)N1CCCCC1)Nc1ccccc1F` [Example 15, N1-piperidine-N5-(2-fluoro)phenyl biguanide hydrochloride] displayed a melting point of 155 to 157 °C. Further, in data set [1] (Homo sapiens, 48 hours), the inhibition at 100 µM was 39.5%. In addition, in data set [1] (Homo sapiens, HCT-116, 48 h), the GI50 was greater than 100 µM. In data set [2], the “AMPK activation effect at 50 μM (%)” value came to 100% and the “AMPK activation effect AC150” value is greater than 50 µM.
Regarding `Cl.N=C(NC(=N)N1CCCCC1)Nc1cccc(F)c1` [Example 16, N1-piperidine-N5-(3-fluoro)phenyl biguanide hydrochloride], the melting point fell in the range of 201 to 202 °C. In addition, in data set [1] (Homo sapiens, 48 hours), the inhibition at 100 µM was 67.2%. This compound returned a GI50 in data set [1] (Homo sapiens, HCT-116, 48 h) of 72.4 µM. In data set [2], the “AMPK activation effect at 50 μM (%)” value is 378% and the “AMPK activation effect AC150” value worked out at 9.9 µM.
On to `Cl.N=C(NC(=N)N1CCCCC1)Nc1cccc(OC(F)F)c1` [Example 30, N1-piperidine-N5-(3-difluoromethoxy)phenyl biguanide hydrochloride], for which, in data set [1] (100 μM, 48 hours), the “Cell Growth Inhibition (%) at 100 μM” value was 97.9%. This compound also showed a concentration for 50% growth inhibition (GI50) in data set [1] (48 hours) of 33.7 µM. Further, in data set [2], the “AMPK activation effect at 10 μM (%)” value was found to be 187%, the “AMPK activation effect at 50 μM (%)” value is listed as 636% and the “AMPK activation effect AC150” value stood at 6.4 µM.
For the compound `Cl.N=C(NC(=N)N1CCCCC1)Nc1ccc(S(=O)(=O)O)cc1` [Example 42, N1-piperidine-N5-(4-sulfonic acid)phenyl biguanide hydrochloride], the inhibition at 100 µM in data set [1] (Homo sapiens, 48 hours) was found to be 23.2%. For the same compound, in data set [1] (Homo sapiens, HCT-116, 48 h), the 50% growth inhibitory concentration (GI50) is greater than 100 µM. In data set [2], the “AMPK activation effect at 10 μM (%)” value was 68%, the “AMPK activation effect at 50 μM (%)” value came out at 97% and the “AMPK activation effect AC150” value is greater than 50 µM.
The corresponding values for `Cl.N=C(NC(=N)N1CCCCC1)Nc1ccc(S(N)(=O)=O)cc1` [Example 44, N1-piperidine-N5-(4-sulfamoyl)phenyl biguanide hydrochloride] are 32.6%, greater than 100 µM, 119%, 114% and greater than 50 µM.
Turning to `Cl.N=C(NC(=N)N1CCCC1)Nc1ccc(OC(F)(F)F)c(Cl)c1` [Example 56, N1-pyrrolidine-N5-(3-chloro-4-trifluoromethoxy)phenyl biguanide hydrochloride], the inhibition at 100 µM in data set [1] (Homo sapiens, 48 hours) was determined as 101%. Further, the 50% growth inhibitory concentration (GI50) in data set [1] (Homo sapiens, HCT-116, 48 h) was found to be 4.6 µM. Further, in data set [2], the “AMPK activation effect at 10 μM (%)” value amounted to 367% and the “AMPK activation effect AC150” value was 2.0 µM.

What is called melting point is the temperature, or range, at which the solid turns liquid. In general, inhibition refers to the relative decrease from the control value, in per cent. The GI50 is the concentration giving 50% growth inhibition. A higher GI50 goes with less potent growth inhibition.
